Read-outs that look alike come from different tables or passages of the source.
How the values were obtained:
SUDHL5 cells = test: Cell viability, 72 h compound treatment (PrestoBlue), SUDHL5; type: cell-based, human; conditions: SUDHL5, 72 h
Method: Thirty thousand cells were seeded in 100 μl of media per well of a 96-well plate and treated with drug for the indicated times and doses. A resazurin-based indicator of cell health (PrestoBlue; P50200, Thermo Fisher) was added for 1.5 h at 37°C, at which point the fluorescence ratio at 560/590 nm was recorded (Tecan Spark). The background fluorescence was subtracted, and the signal was normalized to DMSO-treated cells. IC50 measurements on cell lines were calculated using at least three biological replicates (separate cell passages). Fit of dose–response curves to data and statistical analysis was performed using GraphPad PRISM using the four-parameter log(inhibitor) vs response function.

CBP^BD-BCL6^BTB = test: TR-FRET ternary assay CBPBD-BCL6BTB; type: binding, human
Method: 10 μL reactions containing 10 nM 6x-His- p300^BD or 6x-His-CBP^BD, 200 nM BiotinylatedAvi-BCL6^BTB, 20 nM streptavidin-FITC (SA1001, Thermo), and 1:400 anti-6x-His-terbium (PerkinElmer 61HI2TLF) in buffer containing 20 mM HEPES pH 7.5, 150 mM NaCl, 0.1% BSA, 0.1% NP-40, and 1 mM TCEP were plated in low-volume 384 well plates. Drugs were digitally dispensed (Tecan D300e) into protein-containing wells, and the plate was allowed to incubate in the dark for 1 hour at room temperature. Emission at 490 nm (terbium) and 520 nm (FITC) was measured on a PHERAstar FS plate reader (BMG Labtech) upon excitation with 337 nm. The ratio of signal at 520 nm to 490 nm was calculated and normalized to DMSO-treated protein.

p300^BD = target: T1, p300^BD (Homo sapiens, UniProt Q09472); test: Isothermal calorimetry, p300BD titrations; type: binding; conditions: ITC; for Kd: 25 °C
T1 sequence (Q09472 1049-1156 limits assumed): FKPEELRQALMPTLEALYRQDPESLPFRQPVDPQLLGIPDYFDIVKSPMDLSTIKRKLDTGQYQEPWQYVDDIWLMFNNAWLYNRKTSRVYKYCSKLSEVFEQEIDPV
Method: (§1) 12 hours prior to performing ITC, frozen stocks of 6xHis-p300^BD and BCL6^BTB were dialyzed for two hours in ITC buffer at 4°C (50 mM HEPES pH 7.4, 100 μM TCEP, 150 mM NaCl), followed by dialysis in fresh ITC buffer overnight at 4°C to remove glycerol and equalize protein mixtures. Samples were centrifuged at 10,000g for 10 min to remove any precipitate. In all titrations, DMSO was added to protein mixtures to match the DMSO concentration of ligand dissolved in ITC buffer. For binary assays with TCIP3, dialyzed 6xHis-p300^BD or BCL6^BTB were titrated from the syringe into a cell containing TCIP3 dissolved in ITC buffer. For p300 titrations, 50 μM or 25 μM protein was titrated into 5 μM or 2.5 μM, respectively, of TCIP3. For BCL6 titrations, 70 μM or 40 μM protein was titrated into 7 μM or 5 μM, respectively, of TCIP3. For ternary titrations, 20× 6xHis-p300^BD was incubated with 1x TCIP3 in the cell to drive saturation of the binary complex, followed by a titration of 10x BCL6^BTB from the syringe, at 310 rpm stirring at 25°C. The following concentrations were used in each run: 15 μM BCL6^BTB, 30 μM p300, and 1.5 μM TCIP3; 18 μM BCL6 ^BTB, 36 μM 6xHis-p300^BD, and 1.8 μM TCIP3; or 10 μM BCL6 ^BTB, 20 μM 6xHis-p300^BD, and 1 μM TCIP3. Alternatively, 20x BCL6^BTB was incubated with 1x TCIP3 in the cell to drive saturation of the binary complex, followed by a titration of 10× 6xHis-p300^BD from the syringe, at 310 rpm stirring at 25°C. The following concentrations were used in each run: 30 μM BCL6, 15 μM 6xHis-p300^BD, and 1.5 μM TCIP3; 20 μM BCL6 ^BTB, 10 μM 6xHis-p300^BD, and 1 μM TCIP3; or 40 μM BCL6 ^BTB, 20 μM 6xHis-p300^BD, and 2 μM TCIP3. The first one or two injections and outliers from instrument noise were routinely excluded. Data were fit to a one-site model using MicroCal LLC Origin software. The following injection parameters were used for each run: (Total injection number: 35; Cell temp: 25 °C; Ref power: 10; Initial delay: 250 s; stirring speed: 310; Feedback mode: High; volume: 8 μL; Duration: 13.7 s; Filter period: 2; initial injection volume: 2 μL).

BCL6^BTB = target: T2, BCL6^BTB (Homo sapiens, UniProt P41182+Q09472, C67R/C84N/C8Q); test: Isothermal calorimetry, BCL6BTB titrations; type: binding; conditions: ITC; for Kd: 25 °C
T2 construct: human BCL6 (residues 5–129; Uniprot: P41182); Trx (N, cleaved yes); 6xHis (N, cleaved yes); made in house; host or cells: bacteria (pET-48b(+) vector)
Method: as §1

- IC50 (SUDHL5 cells; Homo sapiens, SU-DHL-5, read-out: IC50 cell viability / antiproliferation): 0.8 nM
- IC50 cell viability / antiproliferation (SUDHL5 cells): sub-nanomolar
- Kd (p300^BD; p300BD titrated into BCL6BTB-saturated TCIP3, read-out: Kd, p300 into BCL6:TCIP3 (ternary)): 2.37 nM
- Kd (p300^BD; p300BD titrated into TCIP3, read-out: Kd, binary p300:TCIP3): 8.28 nM
- α p300 into BCL6:TCIP3 (p300^BD; α = Kd binary/Kd ternary): 3.5
- Kd (BCL6^BTB; BCL6BTB titrated into TCIP3, read-out: Kd, binary BCL6:TCIP3): 265 nM
- Kd (BCL6^BTB; BCL6BTB titrated into p300BD-saturated TCIP3, read-out: Kd, BCL6 into p300:TCIP3 (ternary)): 19.8 nM
- α BCL6 into p300:TCIP3 (BCL6^BTB; α = Kd binary/Kd ternary): 13
Structure (SMILES): CNC(=O)COc1cc2cc(Nc3nc(N4CCC(C(=O)N5CCN(CCC(=O)N6CCC(n7nc(N8CCCc9cc(-c%10cnn(C)c%10)c(C(F)F)cc98)c8c7CCN(C(=O)NC)C8)CC6)CC5)CC4)ncc3Cl)cc(OC)c2n(C)c1=O [TCIP3]
- times more cytotoxic than either NEG1 or NEG2 (SUDHL5 cells): over 1,000 times
- times more potent than A-485 (SUDHL5 cells): 238 times
- times more potent than dCBP-1 (SUDHL5 cells): 12 times
- TR-FRET signal AUC, times higher than NEG1 (CBP^BD-BCL6^BTB): 16 times
- TR-FRET signal AUC, times higher than NEG2 (CBP^BD-BCL6^BTB): 25 times

Reference: doi:10.1101/2025.03.14.643404, “A Bivalent Molecular Glue Linking Lysine Acetyltransferases to Oncogene-induced Cell Death” (bioRxiv, 2025)
